Source: ChEMBL document CHEMBL2417439, “Selected furanochalcones as inhibitors of monoamine oxidase” (Bioorg Med Chem Lett, 2013)

Experiments:
Homo sapiens = species: Homo sapiens; experiment: Selectivity index, ratio of IC50 for human recombinant MAO-A to IC50 for human recombinant MAO-B
[1] = target: T1, Amine oxidase [flavin-containing] A (Homo sapiens, UniProt P21397); experiment: Inhibition of human recombinant MAO-A expressed in insect cell microsomes using kynuramine as substrate assessed as formation of 4-hydroxyquinoline by fluorometric method; parameters: species or system Microsome
T1 sequence (P21397 whole entry): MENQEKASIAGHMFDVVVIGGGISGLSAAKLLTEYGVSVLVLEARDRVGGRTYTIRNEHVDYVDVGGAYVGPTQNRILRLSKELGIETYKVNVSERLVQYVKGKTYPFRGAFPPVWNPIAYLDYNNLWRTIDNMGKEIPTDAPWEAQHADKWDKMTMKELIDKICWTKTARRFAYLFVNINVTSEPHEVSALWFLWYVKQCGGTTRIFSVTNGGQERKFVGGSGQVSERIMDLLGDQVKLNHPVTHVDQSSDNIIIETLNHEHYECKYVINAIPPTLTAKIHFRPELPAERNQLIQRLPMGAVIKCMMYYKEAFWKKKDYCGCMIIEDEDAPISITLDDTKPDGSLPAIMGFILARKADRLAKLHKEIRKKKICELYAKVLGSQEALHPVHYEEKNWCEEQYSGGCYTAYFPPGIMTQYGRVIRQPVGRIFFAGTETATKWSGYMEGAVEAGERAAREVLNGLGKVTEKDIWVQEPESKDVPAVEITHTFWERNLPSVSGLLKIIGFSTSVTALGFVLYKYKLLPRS

[2] = target: T2, Amine oxidase [flavin-containing] B (Homo sapiens, UniProt P27338); experiment: Inhibition of human recombinant MAO-B expressed in insect cell microsomes using kynuramine as substrate assessed as formation of 4-hydroxyquinoline by fluorometric method; parameters: species or system Microsome
T2 sequence (P27338 whole entry): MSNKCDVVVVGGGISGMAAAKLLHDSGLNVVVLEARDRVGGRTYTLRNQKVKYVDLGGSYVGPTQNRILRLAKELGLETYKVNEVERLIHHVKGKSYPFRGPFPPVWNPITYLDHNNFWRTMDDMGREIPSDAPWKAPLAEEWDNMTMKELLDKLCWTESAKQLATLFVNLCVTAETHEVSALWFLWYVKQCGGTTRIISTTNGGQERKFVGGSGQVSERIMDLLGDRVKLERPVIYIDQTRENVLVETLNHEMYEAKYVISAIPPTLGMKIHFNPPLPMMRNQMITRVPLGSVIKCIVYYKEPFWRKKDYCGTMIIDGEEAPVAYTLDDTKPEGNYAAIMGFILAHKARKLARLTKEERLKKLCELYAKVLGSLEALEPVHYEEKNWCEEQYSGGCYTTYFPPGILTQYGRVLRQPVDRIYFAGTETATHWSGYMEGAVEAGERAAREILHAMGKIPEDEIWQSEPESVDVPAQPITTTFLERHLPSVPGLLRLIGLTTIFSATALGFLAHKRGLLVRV

[3] = target: T1, Amine oxidase [flavin-containing] A; experiment: Inhibition of human recombinant MAO-A expressed in insect cell microsomes using kynuramine as substrate assessed as formation of 4-hydroxyquinoline at 100 uM by fluorometric method; parameters: species or system Microsome
[4] = target: T3, Amine oxidase [flavin-containing] A (Rattus norvegicus, UniProt P21396); experiment: Displacement of [14C]-5HT from rat MAO-A after 20 mins by liquid scintillation counting analysis
T3 sequence (P21396 whole entry): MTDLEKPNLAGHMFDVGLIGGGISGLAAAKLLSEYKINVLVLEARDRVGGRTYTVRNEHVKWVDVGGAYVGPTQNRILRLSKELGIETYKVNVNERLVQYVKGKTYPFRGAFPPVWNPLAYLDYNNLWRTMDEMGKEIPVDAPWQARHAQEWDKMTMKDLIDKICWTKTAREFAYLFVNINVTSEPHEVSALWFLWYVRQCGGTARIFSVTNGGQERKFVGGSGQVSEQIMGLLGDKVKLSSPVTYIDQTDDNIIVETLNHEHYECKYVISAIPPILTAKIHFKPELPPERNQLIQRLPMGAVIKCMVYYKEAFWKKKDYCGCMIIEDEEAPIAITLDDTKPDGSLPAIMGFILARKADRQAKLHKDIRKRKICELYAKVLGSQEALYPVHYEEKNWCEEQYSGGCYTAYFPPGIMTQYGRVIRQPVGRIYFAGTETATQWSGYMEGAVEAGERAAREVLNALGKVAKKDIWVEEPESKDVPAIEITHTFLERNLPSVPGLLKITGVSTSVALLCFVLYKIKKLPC

[5] = target: T4, Amine oxidase [flavin-containing] B (Rattus norvegicus, UniProt P19643); experiment: Displacement of [14C]-beta-PEA from rat MAO-B after 20 mins by liquid scintillation counting analysis
T4 sequence (P19643 whole entry): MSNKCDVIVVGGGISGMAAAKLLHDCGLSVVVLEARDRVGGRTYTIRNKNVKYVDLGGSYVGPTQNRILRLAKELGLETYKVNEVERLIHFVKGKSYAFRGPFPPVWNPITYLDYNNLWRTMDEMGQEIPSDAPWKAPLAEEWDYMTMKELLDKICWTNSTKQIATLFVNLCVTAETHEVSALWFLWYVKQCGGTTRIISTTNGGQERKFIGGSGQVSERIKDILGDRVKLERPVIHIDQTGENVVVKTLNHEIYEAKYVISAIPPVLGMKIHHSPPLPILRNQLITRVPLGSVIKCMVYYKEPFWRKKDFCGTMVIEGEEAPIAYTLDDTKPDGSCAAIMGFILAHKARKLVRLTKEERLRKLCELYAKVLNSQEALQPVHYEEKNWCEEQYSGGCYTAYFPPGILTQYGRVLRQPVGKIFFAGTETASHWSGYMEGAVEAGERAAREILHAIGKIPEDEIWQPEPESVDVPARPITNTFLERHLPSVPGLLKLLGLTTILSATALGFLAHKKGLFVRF

Row | Ratio IC50 (Homo sapiens) | IC50 [1] [µM] | IC50 [2] [µM] | inhibition (INH) [3] | IC50 [4] [µM] | IC50 [5] [µM] | Structure (SMILES)
1 | 20 | 18.6 | 0.924 |  |  |  | Cc1ccc(C(=O)/C=C/c2ccc(F)cc2)o1
2 |  |  |  | Not Active |  |  | COc1cccc(/C=C/C(=O)c2ccc(C)o2)c1
3 | 121 | 85.7 | 0.707 |  |  |  | Cc1ccc(C(=O)/C=C/c2ccc(Br)cc2)o1
4 |  |  |  |  | 13.9 | 47.2 | O=C(/C=C/c1ccc(O)cc1)c1ccc(O)cc1O [ISOLIQUIRITIGENIN]
